Experimental data taken from the NIST ThermoML archive (doi:10.1016/j.jct.2012.03.003).
Numbers after ± are expanded uncertainties.

Experiment: xn = mol fraction of the nth substance listed
Conditions: Liquid, Vibrating tube method

For COc1cc2c(cc1O)CC1c3c(cc(O)c(OC)c3-2)CCN1C (stereo not given) [boldine] + CCCO, the mass density (352.94 K, 17000 kPa, x1 = 0.0142) was 793.21 ± 0.69 kg/m3, the mass density (352.94 K, 18000 kPa, x1 = 0.0018) was 773.13 ± 0.95 kg/m3 and the mass density (352.94 K, 18000 kPa, x1 = 0.0112) was 789.5 ± 0.76 kg/m3. For the same compound, the mass density (352.94 K, 18000 kPa, x1 = 0.0142) was 794.1 ± 0.69 kg/m3, the mass density (352.94 K, 19000 kPa, x1 = 0.0018) was 774.01 ± 0.96 kg/m3 and the mass density (352.94 K, 19000 kPa, x1 = 0.0112) was 790.38 ± 0.76 kg/m3. The mass density (352.94 K, 19000 kPa, x1 = 0.0142) was 794.97 ± 0.69 kg/m3, the mass density (352.94 K, 20000 kPa, x1 = 0.0018) was 774.9 ± 0.96 kg/m3 and the mass density (352.94 K, 20000 kPa, x1 = 0.0112) was 791.19 ± 0.77 kg/m3. The mass density (352.94 K, 20000 kPa, x1 = 0.0142) was 795.82 ± 0.7 kg/m3, the mass density (352.95 K, 1000 kPa, x1 = 0.0046) was 762.42 ± 0.71 kg/m3 and the mass density (352.95 K, 1000 kPa, x1 = 0.0077) was 766.39 ± 0.67 kg/m3. It also gave a mass density (352.95 K, 2000 kPa, x1 = 0.0046) of 763.47 ± 0.71 kg/m3, a mass density (352.95 K, 2000 kPa, x1 = 0.0077) of 767.42 ± 0.67 kg/m3 and a mass density (352.95 K, 3000 kPa, x1 = 0.0046) of 764.53 ± 0.71 kg/m3. It also gave a mass density (352.95 K, 3000 kPa, x1 = 0.0077) of 768.43 ± 0.68 kg/m3, a mass density (352.95 K, 4000 kPa, x1 = 0.0046) of 765.57 ± 0.71 kg/m3 and a mass density (352.95 K, 4000 kPa, x1 = 0.0077) of 769.48 ± 0.67 kg/m3. It also gave a mass density (352.95 K, 5000 kPa, x1 = 0.0046) of 766.6 ± 0.72 kg/m3, a mass density (352.95 K, 5000 kPa, x1 = 0.0077) of 770.53 ± 0.68 kg/m3 and a mass density (352.95 K, 6000 kPa, x1 = 0.0046) of 767.63 ± 0.72 kg/m3. It also gave a mass density (352.95 K, 6000 kPa, x1 = 0.0077) of 771.55 ± 0.68 kg/m3, a mass density (352.95 K, 7000 kPa, x1 = 0.0046) of 768.64 ± 0.72 kg/m3 and a mass density (352.95 K, 7000 kPa, x1 = 0.0077) of 772.55 ± 0.68 kg/m3. It also gave a mass density (352.95 K, 8000 kPa, x1 = 0.0046) of 769.68 ± 0.72 kg/m3, a mass density (352.95 K, 8000 kPa, x1 = 0.0077) of 773.58 ± 0.68 kg/m3 and a mass density (352.95 K, 9000 kPa, x1 = 0.0046) of 770.67 ± 0.73 kg/m3. The mass density (352.95 K, 9000 kPa, x1 = 0.0077) was 774.57 ± 0.69 kg/m3, the mass density (352.95 K, 10000 kPa, x1 = 0.0046) was 771.67 ± 0.73 kg/m3 and the mass density (352.95 K, 10000 kPa, x1 = 0.0077) was 775.56 ± 0.69 kg/m3. For the same compound, the mass density (352.95 K, 11000 kPa, x1 = 0.0046) was 772.65 ± 0.73 kg/m3, the mass density (352.95 K, 11000 kPa, x1 = 0.0077) was 776.53 ± 0.69 kg/m3 and the mass density (352.95 K, 12000 kPa, x1 = 0.0046) was 773.64 ± 0.73 kg/m3. It also gave a mass density (352.95 K, 12000 kPa, x1 = 0.0077) of 777.51 ± 0.7 kg/m3, a mass density (352.95 K, 13000 kPa, x1 = 0.0046) of 774.6 ± 0.74 kg/m3 and a mass density (352.95 K, 13000 kPa, x1 = 0.0077) of 778.48 ± 0.7 kg/m3. The mass density (352.95 K, 14000 kPa, x1 = 0.0046) was 775.56 ± 0.74 kg/m3, the mass density (352.95 K, 14000 kPa, x1 = 0.0077) was 779.42 ± 0.7 kg/m3 and the mass density (352.95 K, 15000 kPa, x1 = 0.0046) was 776.52 ± 0.74 kg/m3. For the same compound, the mass density (352.95 K, 15000 kPa, x1 = 0.0077) was 780.35 ± 0.71 kg/m3, the mass density (352.95 K, 16000 kPa, x1 = 0.0046) was 777.42 ± 0.75 kg/m3 and the mass density (352.95 K, 16000 kPa, x1 = 0.0077) was 781.26 ± 0.71 kg/m3. For the same compound, the mass density (352.95 K, 17000 kPa, x1 = 0.0046) was 778.33 ± 0.75 kg/m3, the mass density (352.95 K, 17000 kPa, x1 = 0.0077) was 782.19 ± 0.71 kg/m3 and the mass density (352.95 K, 18000 kPa, x1 = 0.0046) was 779.23 ± 0.76 kg/m3. For the same compound, the mass density (352.95 K, 18000 kPa, x1 = 0.0077) was 783.07 ± 0.72 kg/m3, the mass density (352.95 K, 19000 kPa, x1 = 0.0046) was 780.13 ± 0.76 kg/m3 and the mass density (352.95 K, 19000 kPa, x1 = 0.0077) was 783.97 ± 0.72 kg/m3. The mass density (352.95 K, 20000 kPa, x1 = 0.0046) was 780.98 ± 0.77 kg/m3, the mass density (352.95 K, 20000 kPa, x1 = 0.0077) was 784.83 ± 0.72 kg/m3 and the mass density (362.91 K, 1000 kPa, x1 = 0.0142) was 768.06 ± 0.63 kg/m3. The mass density (362.91 K, 2000 kPa, x1 = 0.0142) was 769.19 ± 0.63 kg/m3, the mass density (362.91 K, 3000 kPa, x1 = 0.0142) was 770.27 ± 0.64 kg/m3 and the mass density (362.91 K, 4000 kPa, x1 = 0.0142) was 771.41 ± 0.64 kg/m3. It also gave a mass density (362.91 K, 5000 kPa, x1 = 0.0142) of 772.43 ± 0.64 kg/m3, a mass density (362.91 K, 6000 kPa, x1 = 0.0142) of 773.54 ± 0.64 kg/m3 and a mass density (362.91 K, 7000 kPa, x1 = 0.0142) of 774.62 ± 0.65 kg/m3. It also gave a mass density (362.91 K, 8000 kPa, x1 = 0.0142) of 775.73 ± 0.65 kg/m3, a mass density (362.91 K, 9000 kPa, x1 = 0.0142) of 776.73 ± 0.63 kg/m3 and a mass density (362.91 K, 10000 kPa, x1 = 0.0142) of 777.77 ± 0.66 kg/m3. It also gave a mass density (362.91 K, 11000 kPa, x1 = 0.0142) of 778.78 ± 0.66 kg/m3, a mass density (362.91 K, 12000 kPa, x1 = 0.0142) of 779.82 ± 0.67 kg/m3 and a mass density (362.91 K, 13000 kPa, x1 = 0.0142) of 780.81 ± 0.67 kg/m3. The mass density (362.91 K, 14000 kPa, x1 = 0.0142) was 781.79 ± 0.67 kg/m3, the mass density (362.91 K, 15000 kPa, x1 = 0.0142) was 782.77 ± 0.68 kg/m3 and the mass density (362.91 K, 16000 kPa, x1 = 0.0142) was 783.72 ± 0.68 kg/m3. For the same compound, the mass density (362.91 K, 17000 kPa, x1 = 0.0142) was 784.68 ± 0.69 kg/m3, the mass density (362.91 K, 18000 kPa, x1 = 0.0142) was 785.6 ± 0.69 kg/m3 and the mass density (362.91 K, 19000 kPa, x1 = 0.0142) was 786.52 ± 0.69 kg/m3. For the same compound, the mass density (362.91 K, 20000 kPa, x1 = 0.0142) was 787.4 ± 0.7 kg/m3, the mass density (362.92 K, 1000 kPa, x1 = 0.0046) was 752.84 ± 0.71 kg/m3 and the mass density (362.92 K, 1000 kPa, x1 = 0.0077) was 756.81 ± 0.67 kg/m3. For the same compound, the mass density (362.92 K, 2000 kPa, x1 = 0.0046) was 753.97 ± 0.71 kg/m3, the mass density (362.92 K, 2000 kPa, x1 = 0.0077) was 757.93 ± 0.68 kg/m3 and the mass density (362.92 K, 3000 kPa, x1 = 0.0046) was 755.11 ± 0.71 kg/m3.
